Data on 12 compounds can be found in ChEMBL document CHEMBL5500383, “Recent advances and future directions on small molecule VEGFR inhibitors in oncological conditions” (Eur J Med Chem, 2024).

One data set deals with HOP-92. Briefly: Growth inhibition of human HOP-92 cells incubated for 48 hrs by sulforhodamine B assay. The class given is functional. On the technique in general: Sulforhodamine B stains cellular protein and so reports cell mass.
For data set [1], the target named is T1, Vascular endothelial growth factor receptor 2 (Homo sapiens, UniProt P35968). Nature of the data set: Inhibition of VEGFR2 (unknown origin) by FRET based assay.
Data set [2] has as its target T1, Vascular endothelial growth factor receptor 2. Briefly: Inhibition of GST-tagged human recombinant VEGFR2.
Data set [3] concerns HepG2. Briefly: Antiproliferative activity against human HepG2 cells assessed as cell growth inhibition incubated for 24 hrs by MTT assay. The conditions noted are these: HepG2, 24 h. It counts as functional, cell-based. (In general: Tetrazolium dyes change colour on reduction, which living cells bring about.)
Data set [4] concerns PC-3. Briefly: Antiproliferative activity against human PC-3 cells assessed as cell growth inhibition incubated for 24 hrs by MTT assay. It counts as functional, cell-based. Particulars: PC-3, 24 h.
A further data set has as its system WI-38. Nature of the data set: (§1) Antiproliferative activity against human WI-38 cells assessed as cell growth inhibition incubated for 24 hrs by MTT assay. It counts as toxicity, cell-based. The conditions noted are these: wi-38.
Data set [5] addresses RAC-alpha serine/threonine-protein kinase (Homo sapiens, UniProt P31749). Briefly: Inhibition of AKT1 (unknown origin).
The target in data set [6] is T1, Vascular endothelial growth factor receptor 2. Briefly: Inhibition of human VEGFR-2 by ELISA method.
Data set [7] relates to HCT-116. Briefly: Antiproliferative activity against human HCT-116 cells assessed as reduction in cell growth incubated for 24 hrs by MTT assay. The class given is functional, cell-based. Particulars: HCT-116, 24 h.
The subject of data set [8] is HepG2. Briefly: Antiproliferative activity against human HepG2 cells assessed as inhibition of cell growth incubated for 24 hrs by MTT assay. The class given is functional, cell-based. The conditions noted are these: HepG2, 24 h.
Data set [9] deals with MCF7. Nature of the data set: Antiproliferative activity against human MCF7 cells assessed as inhibition of cell growth incubated for 24 hrs by MTT assay. The class given is functional, cell-based. The conditions noted are these: MCF7, 24 h.
Data set [10] has as its system HCT-116. Briefly: Antiproliferative activity against human HCT-116 cells assessed as inhibition of cell growth incubated for 24 hrs by MTT assay. The class given is functional, cell-based. The conditions noted are these: HCT-116, 24 h.
Data set [11] has as its system HepG2. Nature of the data set: Antiproliferative activity against human HepG2 cells assessed as reduction in cell growth incubated for 24 hrs by MTT assay. It counts as functional, cell-based. Particulars: HepG2, 24 h.
The test system of data set [12] is MCF7. Briefly: Antiproliferative activity against human MCF7 cells assessed as reduction in cell growth incubated for 24 hrs by MTT assay. It counts as functional, cell-based. Particulars: MCF7, 24 h.
Data set [13] relates to PC-3. Nature of the data set: Cytotoxicity against human PC-3 cells assessed as reduction in cell viability incubated for 72 hrs by MTT assay. It counts as functional, cell-based. The conditions noted are these: PC-3, 72 h.
For a further data set, the system named is DU-145. Nature of the data set: Cytotoxicity against human DU-145 cells assessed as reduction in cell viability incubated for 72 hrs by MTT assay. Particulars: DU-145, 72 h. It counts as functional, cell-based.
In a further data set the test system is MDA-MB-435. Nature of the data set: Cytotoxicity against human MDA-MB-435 cells assessed as reduction in cell growth measured for 72 hrs by MTT assay. The class given is functional, cell-based. Particulars: MDA-MB-435, 72 h.
For data set [14], the target named is T1, Vascular endothelial growth factor receptor 2. Nature of the data set: Inhibition of VEGFR2 (unknown origin).
The test system of data set [15] is MCF7. Nature of the data set: Cytotoxicity against human MCF7 cells assessed as reduction in cell viability. The class given is functional, cell-based.
In data set [16] the target is Epidermal growth factor receptor (Homo sapiens, UniProt P00533). Briefly: Inhibition of EGFR (unknown origin).
Data set [17] concerns HepG2. Briefly: Antiproliferative activity against human HepG2 cells. The class given is functional, cell-based.
Data set [18] deals with MCF7. Briefly: Antiproliferative activity against human MCF7 cells. The class given is functional, cell-based.
The subject of data set [19] is HCT-116. Nature of the data set: Antiproliferative activity against human HCT-116 cells. It counts as functional, cell-based.
The test system of the next data set is MDA-MB-231. Nature of the data set: Antiproliferative activity against human MDA-MB-231 cells. It counts as functional, cell-based.
The subject of the next data set is Caco-2. Nature of the data set: Antiproliferative activity against human Caco-2 cells. The class given is functional, cell-based.
Data set [20] addresses T1, Vascular endothelial growth factor receptor 2. Briefly: Inhibition of VEGFR2 (unknown origin) by Z'-Lyte kinase assay.
A further data set deals with T47D. Briefly: Antiproliferative activity against human T47D cells assessed as growth inhibition at 10 uM after 48 hrs by sulforhodamine B assay relative to control. The class given is functional. On the set-up: scale not given: the % may be the effect or the level left.
For another data set, the system named is A498. Nature of the data set: Antiproliferative activity against human A498 cells assessed as growth inhibition at 10 uM after 48 hrs by sulforhodamine B assay relative to control. On the set-up: scale not given: the % may be the effect or the level left. The class given is functional.
Data set [21] relates to HepG2. Nature of the data set: Cytotoxicity against human HepG2 cells assessed as reduction in cell viability incubated for 72 hrs by MTT assay. The class given is functional, cell-based. Particulars: HepG2, 72 h.
The test system of data set [22] is HCT-116. Briefly: Cytotoxicity against human HCT-116 cells assessed as reduction in cell viability incubated for 72 hrs by MTT assay. It counts as functional, cell-based. The conditions noted are these: HCT-116, 72 h.
Data set [23] concerns MCF7. Briefly: Cytotoxicity against human MCF7 cells assessed as reduction in cell viability incubated for 72 hrs by MTT assay. The class given is functional, cell-based. The conditions noted are these: MCF7, 72 h.
Data set [24] is described as follows: as §1. It counts as toxicity, cell-based. Particulars: human, WI-38 cells.

T1 sequence (P35968 whole entry): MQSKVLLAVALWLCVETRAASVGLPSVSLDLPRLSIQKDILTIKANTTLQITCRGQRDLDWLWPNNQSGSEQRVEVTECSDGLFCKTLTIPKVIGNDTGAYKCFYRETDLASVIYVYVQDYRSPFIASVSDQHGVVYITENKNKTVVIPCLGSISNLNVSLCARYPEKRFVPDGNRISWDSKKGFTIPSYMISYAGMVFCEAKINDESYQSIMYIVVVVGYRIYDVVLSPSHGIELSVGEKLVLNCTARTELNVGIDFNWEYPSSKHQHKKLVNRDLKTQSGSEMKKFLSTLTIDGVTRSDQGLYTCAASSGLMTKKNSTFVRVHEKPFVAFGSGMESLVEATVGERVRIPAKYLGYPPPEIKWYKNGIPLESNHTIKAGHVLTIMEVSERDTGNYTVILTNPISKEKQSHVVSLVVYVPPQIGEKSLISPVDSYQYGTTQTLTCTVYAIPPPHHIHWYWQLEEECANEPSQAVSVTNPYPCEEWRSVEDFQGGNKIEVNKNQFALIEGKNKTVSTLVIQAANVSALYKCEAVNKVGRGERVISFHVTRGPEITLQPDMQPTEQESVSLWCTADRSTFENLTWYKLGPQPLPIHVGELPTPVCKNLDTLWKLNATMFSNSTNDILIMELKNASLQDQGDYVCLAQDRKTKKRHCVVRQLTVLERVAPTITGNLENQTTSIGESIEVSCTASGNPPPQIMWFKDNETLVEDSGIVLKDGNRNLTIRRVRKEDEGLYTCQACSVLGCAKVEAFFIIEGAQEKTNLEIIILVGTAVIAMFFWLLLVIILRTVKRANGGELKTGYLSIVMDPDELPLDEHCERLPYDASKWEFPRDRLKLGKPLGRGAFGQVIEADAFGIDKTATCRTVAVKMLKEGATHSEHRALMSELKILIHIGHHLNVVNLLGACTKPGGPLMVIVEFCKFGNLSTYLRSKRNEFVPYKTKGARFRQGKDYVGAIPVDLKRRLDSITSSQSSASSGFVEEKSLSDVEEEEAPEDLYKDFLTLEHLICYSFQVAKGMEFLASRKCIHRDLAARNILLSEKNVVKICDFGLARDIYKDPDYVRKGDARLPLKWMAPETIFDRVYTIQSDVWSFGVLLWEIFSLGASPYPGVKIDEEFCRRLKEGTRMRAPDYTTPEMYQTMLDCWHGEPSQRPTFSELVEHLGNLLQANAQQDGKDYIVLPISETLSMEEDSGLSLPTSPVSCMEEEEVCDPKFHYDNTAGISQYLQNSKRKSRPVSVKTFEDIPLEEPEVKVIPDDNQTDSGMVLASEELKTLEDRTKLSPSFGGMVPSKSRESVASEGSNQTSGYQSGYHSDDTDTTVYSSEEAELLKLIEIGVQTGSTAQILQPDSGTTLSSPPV
Chain of Epidermal growth factor receptor (P00533 whole entry): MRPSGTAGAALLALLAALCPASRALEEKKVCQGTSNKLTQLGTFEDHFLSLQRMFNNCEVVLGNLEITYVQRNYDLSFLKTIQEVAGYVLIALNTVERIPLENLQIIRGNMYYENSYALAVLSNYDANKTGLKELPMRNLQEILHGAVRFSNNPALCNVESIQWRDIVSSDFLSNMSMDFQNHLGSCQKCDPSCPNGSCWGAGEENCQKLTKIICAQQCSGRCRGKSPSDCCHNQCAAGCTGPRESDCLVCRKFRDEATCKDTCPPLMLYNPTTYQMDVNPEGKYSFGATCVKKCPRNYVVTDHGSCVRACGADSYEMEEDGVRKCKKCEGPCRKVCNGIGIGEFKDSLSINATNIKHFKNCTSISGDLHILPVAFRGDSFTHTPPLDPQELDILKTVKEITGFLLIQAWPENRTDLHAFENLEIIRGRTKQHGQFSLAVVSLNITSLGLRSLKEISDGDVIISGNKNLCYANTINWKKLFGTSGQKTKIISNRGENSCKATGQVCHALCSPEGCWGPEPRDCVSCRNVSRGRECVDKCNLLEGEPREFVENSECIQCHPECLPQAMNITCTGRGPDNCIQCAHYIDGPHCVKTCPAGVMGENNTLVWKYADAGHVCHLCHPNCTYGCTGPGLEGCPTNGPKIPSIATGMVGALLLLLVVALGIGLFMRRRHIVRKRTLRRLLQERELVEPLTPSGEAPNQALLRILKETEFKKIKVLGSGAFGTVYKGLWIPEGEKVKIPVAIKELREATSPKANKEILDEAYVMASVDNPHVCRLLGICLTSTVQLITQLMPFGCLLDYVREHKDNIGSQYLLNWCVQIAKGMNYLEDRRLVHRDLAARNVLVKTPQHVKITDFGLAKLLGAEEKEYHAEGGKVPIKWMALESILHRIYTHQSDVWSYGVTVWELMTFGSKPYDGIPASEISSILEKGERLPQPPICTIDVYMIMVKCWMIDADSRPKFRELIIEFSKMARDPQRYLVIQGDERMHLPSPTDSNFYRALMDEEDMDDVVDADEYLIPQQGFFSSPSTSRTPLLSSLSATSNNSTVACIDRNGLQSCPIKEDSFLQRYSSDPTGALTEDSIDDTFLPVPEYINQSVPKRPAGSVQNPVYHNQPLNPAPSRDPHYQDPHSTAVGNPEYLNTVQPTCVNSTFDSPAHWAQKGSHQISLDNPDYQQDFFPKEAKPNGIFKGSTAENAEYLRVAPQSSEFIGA
Chain of RAC-alpha serine/threonine-protein kinase (P31749 whole entry): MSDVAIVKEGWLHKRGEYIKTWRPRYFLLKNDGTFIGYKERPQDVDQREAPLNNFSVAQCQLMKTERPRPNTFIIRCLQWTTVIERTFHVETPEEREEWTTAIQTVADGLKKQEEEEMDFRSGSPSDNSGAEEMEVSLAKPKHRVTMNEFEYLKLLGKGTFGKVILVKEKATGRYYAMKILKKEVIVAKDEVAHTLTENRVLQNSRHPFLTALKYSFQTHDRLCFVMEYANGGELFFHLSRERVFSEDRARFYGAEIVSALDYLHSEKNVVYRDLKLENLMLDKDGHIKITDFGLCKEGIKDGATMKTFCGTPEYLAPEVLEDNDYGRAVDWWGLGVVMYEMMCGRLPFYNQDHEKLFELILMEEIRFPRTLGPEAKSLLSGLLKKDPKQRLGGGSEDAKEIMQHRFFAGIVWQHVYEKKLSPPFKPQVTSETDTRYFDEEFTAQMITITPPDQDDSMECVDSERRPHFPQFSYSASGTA

As a reminder, the GI50 is the concentration giving 50% growth inhibition. In turn, `Cc1ccc(S(=O)(=O)Nc2ccc(-c3cc(-c4cccc(F)c4)c(C#N)c(N)n3)cc2)cc1` came in with a GI50 with HOP-92 of 1.06 µM.

One may read the IC50 as the concentration that inhibits the measured activity by half. Turning to `O=C(CN1CCN(c2cc(=O)[nH]c3c(-c4ccccc4)cccc23)CC1)Nc1ccc(F)cc1`, in data set [1], half-maximal inhibition (IC50) was put at 0.0388 µM.

For the compound `CN1CCC2=C1C1C(=O)NC(c3ccccc3)=NC1S2` (configuration not stated), the IC50 in data set [2] was 0.126 µM; in the data set with HepG2 [3], 3.11 µM; in the data set with PC-3 [4], 2.15 µM; with WI-38, 12.5 µM; in [5], 6.96 µM.

In the case of `C/C(=N\NC(=O)c1ccccc1O)c1ccc(NC(=O)CSc2nc3ccccc3c(=O)n2-c2ccccc2)cc1`, the half-inhibitory concentration (IC50) in [6] worked out at 0.34 µM; in the data set with HCT-116 [7] it was 3.74 µM; with HepG2 [8], 3.74 µM; with MCF7 [9] it was 5 µM; in the data set with HCT-116 [10], 6.77 µM.

With `CCn1c(SCC(=O)Nc2ccc(/C(C)=N/O)cc2)nc2ccccc2c1=O`, the half-inhibitory concentration (IC50) in data set [6] stood at 2.5 µM; in the data set on HepG2 [11] it was 3.97 µM; in the data set with MCF7 [12], 4.83 µM; in the data set on HCT-116 [7], 4.58 µM.

On to `COc1cc(-c2cc(-c3ccc4ccccc4c3)nc(NN)c2C#N)ccc1O`, for which the half-inhibitory concentration (IC50) turned out to be 0.055 µM in the data set with PC-3 [13], 0.0085 µM in the data set on DU-145 and 0.096 µM in the data set with MDA-MB-435.

Regarding `Cc1ccc2oc(CCCC(=O)Nc3ccc(S(=O)(=O)NC(=O)NC4CCCCC4)cc3)nc2c1`, the half-inhibitory concentration (IC50) in data set [14] was determined as 0.07 µM; in the data set on MCF7 [15], 5.5 µM.

Consider `COc1ccc(-c2cc(-c3ccc(C)cc3)nc(NN)n2)cc1`, for which the IC50 in data set [14] came out at 0.098 µM; in data set [16], 0.071 µM; with HepG2 [17], 18.3 µM; in the data set with MCF7 [18] it was 7.8 µM; in the data set with HCT-116 [19], 31 µM; in the data set on MDA-MB-231, 23.7 µM. Moreover, the IC50 in the data set on Caco-2 came out at 12.8 µM.

`O=C1C(=O)N(CN2CCN(c3cc(=O)[nH]c4ccc(F)cc34)CC2)c2ccccc21` yielded an IC50 in data set [20] of 0.0638 µM.

In the case of `O=C(Nc1ccccc1)Nc1ccc(Nc2ncnc3sc4c(c23)CCOC4)cc1`, the Activity was 85.5% with T47D and 77.65% with A498.

Take `CCOC(=O)c1ccc(NC(=O)c2ccc(NC(=O)CN3C(=O)S/C(=C\c4ccccc4)C3=O)cc2)cc1`: the half-inhibitory concentration (IC50) in the data set on HepG2 [21] was determined as 11.2 µM; in the data set on HCT-116 [22] it was 8.99 µM; with MCF7 [23], 7.1 µM.

In the case of `CCOC(=O)c1c(NC(=S)Nc2cc(C)ccc2Cl)sc2c1N(C)CC2`, the figures for the concentration for half-maximal inhibition (IC50) in the data set on HepG2 [3] and with PC-3 [4] were 3.02 µM and 3.12 µM, respectively. In addition, the concentration for half-maximal inhibition (IC50) at 24 h in [24] stood at 35.3 µM.
